Measurements reported in patent publication USRE39192E1, “Supplemented and unsupplemented tissue sealants, methods of their production and use” (American National Red Cross, priority 1990, dated 2006).

Experiments:
[1] = Saturation concentration of 5-FU in water; format: physicochemical
[2] = Release of 5-FU from FG clots; conditions: clots containing 50 mg of solid anhydrous 5-FU
[3] = tested on: human ovarian carcinoma cell (OVACAR); experiment: Growth inhibition of OVCAR cells by eluates of taxol-supplemented fibrin sealant (MTT assay); format: cell-based; conditions: taxol in solid anhydrous form
Experimental: The kinetics of taxol delivery from fibrin sealant were initially evaluated, by incorporating taxol (0.26 mg), either as an anhydrous solid or dissolved in ethanol, into 400 μl fibrin sealant composition. The resulting supplemented fibrin matrices were then placed in 2 ml histidine buffer, and incubated at 37° C. The buffer was exchanged after two days, and again ten days later. The relative concentration of taxol in the resulting eluates determined by measuring their ability to inhibit the growth of a human ovarian carcinoma cell (OVACAR) in vitro (MacPhee et al., In Current Trends in Surgical Tissue Adhesives: Proceedings of the First International Symposium on Surgical Adhesives, R. Saltz and D. Sierra, eds. Springer-Verlag).
Briefly, 1000 OVCAR cells in 100 μl of growth medium were plated into each well of a 96 well culture plate and incubated for 24 hours. A 100 μl volume of various dilutions of the eluates was then placed into the wells (10 wells per dilution), and the plate incubated at 37° C. After five days, the number of cells in each well was measured using the MTT assay (Rapaport et al., American Journal of Clinical Pathology 97:84 (1992)). […] The resulting chromaphore is detected by spectrophotometry at 570 nm. […]

[4] = tested on: human umbilical endothelial cells; experiment: Human umbilical endothelial cells embedded in FG; format: cell-based; conditions: within 24 hours, maintained at least 5 days
Experimental: To study their growth, human umbilical endothelial cells, 10^5 or more cells per ml, were embedded in FG, the protein concentration of which was 4 mg/ml. The concentration of thrombin in the FG was adjusted to 0.6 NIH U/ml. The culture medium used in all of the experiments was M199 (Sigma Chemical Co., St. Louis, Mo.) supplemented with 10% fetal bovine serum, 10 μg/ml streptomycin, 100 U/ml penicillin, 1 ng/ml FGF-1 and 10 U/ml heparin.
As a control, an identical cell suspension was cultured on a surface coated with fibronectin at 10 μg/cm^2. […] FIGS. 9 and 10 show this situation at 24 and 48 hours, respectively.

NIH 3T3 fibroblasts = experiment: Cell chemotaxis assay (modified Boyden's chamber), NIH 3T3 fibroblasts; format: cell-based
Text: (§1) NIH/3T3 fibroblasts at passage 126 were purchased from the American Type Culture Collection, Rockville, Md. Cultures from passages 129-133 were used in the chemotaxis assays. Cultures were propagated in DMEM supplemented with 10%. Calf serum and approximately 1% antibiotic antimycotic solution. Human dermal fibroblasts (HDFs) were purchased from Clonetics, Inc. (San Diego, Calif.) at passage 2. Cultures from passages 3-5 were used in the chemotaxis assays. Cultures were cultivated in DMEM supplemented with 20% FBS (Hyclone Laboratories, Inc., Logan, Utah) and approximately 1% antibiotic antimycotic solution (Gibco, Grand Island, N.Y.).
The procedure used to determine cellular chemotaxis was a combination of two known methodologies. A modification of Boyden's chamber was used as follows: Millicell-PCF (Millipore, Inc., Bedford, Mass.) (12.0 μm) 12.0 mm diameter inserts were placed in individual wells of 24 well plates to create the upper and lower chemotaxis chambers. Chemotaxis results were arrived at by performing checkerboard analysis for every combination of cells and growth factors. […] Briefly, cultures were trypsanized and placed in DMEM+0.1% Bovine Serum Albumin (BSA) (Sigma Chemical Co., St. Louis, Mo.) for approximately one hour at 37° C. in a 5% CO2 humidified chamber. Tow to 2.5×10^5 cells in 50 μl were added per insert to the upper chamber of the setup of the 24 well plates. Treatments were added as mentioned above. The assay was kept at 37° C. in a 5% CO2 humidified chamber for 4 hours. All combinations tested were performed in triplicate. At the end of 4 hours, the plates were removed from the incubator and the filters were stained following the protocol for staining included with the Millicell-PCT inserts. Briefly, the fluid surrounding the inside and outside of the Millicell-PCF inserts were removed. Three percent glutaraldehyde (Sigma Chemical Co., St. Louis, Mo.) was added to the outside and inside of the inserts for approximately 20 minutes. Following removal of the 3.0% glutaraldehyde, 0.5% Triton X-100 (E.M. Science, Cherry Hill, N.J.) was added for 5-7 minutes. On removal of the 0.5% Triton X-100, Fisher's Hematoxylin Solution Gill's Formulation (Fisher Scientific, Newark, Del.) No.1 was added for about 10 minutes. This solution was washed off in running distilled water for about 5 minutes. Using a cotton swab the upper side of the filter was swabbed to remove cells which had not migrated. Filters, were mounted lower side facing up on slides in Crystal Mount™ (Biomedia, Inc., Foster City, Calif.) solution and 10 random field were counted per slide both visually at 400× and at 200×using an Image Analyzing System to automate the enumeration of the cells on the underside of the filters.
(§2) As required, checkerboard analysis was carried out to determine random migration, and positive and negative chemotaxis. Growth factors were added to the upper and/or lower chambers to observe whether cells migrated towards the GF alone (chemotaxis), whether migration was random irrespective of whether the growth factor was added to the upper or lower well (chemokinesis) or whether cell migration was against the chemotactic gradient (negative chemotaxis).

[5] = tested on: human dermal fibroblasts (HDFs); experiment: Cell chemotaxis assay (modified Boyden's chamber), human dermal fibroblasts; format: cell-based
Text: as §1
The procedure used to determine cellular chemotaxis was a combination of two known methodologies. A modification of Boyden's chamber was used as follows: Millicell-PCF (Millipore, Inc., Bedford, Mass.) (12.0 μm) 12.0 mm diameter inserts were placed in individual wells of 24 well plates to create the upper and lower chemotaxis chambers. Chemotaxis results were arrived at by performing checkerboard analysis for every combination of cells and growth factors. Concentrations ranging from 0.1, 1, 10, 100 ng/ml with/without added heparin (10 U/ml) were used for FGF-1, FGF-2 (no heparin) and FGF-4 with all the cell types mentioned in the materials section. Briefly, cultures were trypsanized and placed in DMEM+0.1% Bovine Serum Albumin (BSA) (Sigma Chemical Co., St. Louis, Mo.) for approximately one hour at 37° C. in a 5% CO2 humidified chamber. Tow to 2.5×10^5 cells in 50 μl were added per insert to the upper chamber of the setup of the 24 well plates. Treatments were added as mentioned above. The assay was kept at 37° C. in a 5% CO2 humidified chamber for 4 hours. All combinations tested were performed in triplicate. At the end of 4 hours, the plates were removed from the incubator and the filters were stained following the protocol for staining included with the Millicell-PCT inserts. Briefly, the fluid surrounding the inside and outside of the Millicell-PCF inserts were removed. Three percent glutaraldehyde (Sigma Chemical Co., St. Louis, Mo.) was added to the outside and inside of the inserts for approximately 20 minutes. Following removal of the 3.0% glutaraldehyde, 0.5% Triton X-100 (E.M. Science, Cherry Hill, N.J.) was added for 5-7 minutes. On removal of the 0.5% Triton X-100, Fisher's Hematoxylin Solution Gill's Formulation (Fisher Scientific, Newark, Del.) No.1 was added for about 10 minutes. This solution was washed off in running distilled water for about 5 minutes. Using a cotton swab the upper side of the filter was swabbed to remove cells which had not migrated. Filters, were mounted lower side facing up on slides in Crystal Mount™ (Biomedia, Inc., Foster City, Calif.) solution and 10 random field were counted per slide both visually at 400× and at 200×using an Image Analyzing System to automate the enumeration of the cells on the underside of the filters.
as §2

[6] = Compatibility of TGF-β2 in Topical Fibrinogen Complex (ELISA, bio-assay); conditions: after two weeks in TFC at 2-8° C.
Experimental: Fibrinogen and thrombin were prepared per instruction of the American Red Cross, Rockville, Md. Upon reconstitution, the protein concentration of the Topical Fibrinogen Complex, (TFC) was 120 mg/ml (the standard formulation for hemostasis). The human thrombin was reconstituted with 40 mM CaCl2 to yield a solution at 300 units/ml.
To evaluate the compatibility of transforming growth factor β2 (TGF-β2) in Topical Fibrinogen Complex, TFG-β2 (purified recombinant human protein provided by Genzyme Corp., Framingham, Mass.) was spiked into TFC at 10 and 1 μg/ml. Samples were incubated for two weeks at 2-8° C. TGF-β2 was extracted for analysis by passing the gel-like material through a narrow bore stopcock connected to two syringes.

O=c1[nH]cc(F)c(=O)[nH]1 [5-FU, 5-fluorouracil]
concentration in water saturated with 5-FU [1]: 17000 µg/mL
duration of 5-FU delivery [2]: at least 75 hours

CC(=O)O[C@H]1C(=O)[C@@]2(C)[C@H]([C@H](OC(=O)c3ccccc3)[C@]3(O)C[C@H](OC(=O)[C@H](O)[C@@H](NC(=O)c4ccccc4)c4ccccc4)C(C)=C1C3(C)C)[C@]1(OC(C)=O)CO[C@@H]1C[C@@H]2O [taxol, paclitaxel]
time OVCAR cells were significantly inhibited [3]: up to 85 days

fibronectin [reference compound]
cell morphology [4]: acquired a cobblestone shape
concentration of maximal chemotactic response (NIH 3T3 fibroblasts): 20 µg/mL
migrated cells (checkerboard analysis) (NIH 3T3 fibroblasts; lower 0 μg/ml, upper 20 μg/ml): 69.6 +/− 12.25
migrated cells (checkerboard analysis) (NIH 3T3 fibroblasts; lower 0 μg/ml, upper 50 μg/ml): 62.0 +/− 2.616
migrated cells (checkerboard analysis) (NIH 3T3 fibroblasts; lower 10 μg/ml, upper 0 μg/ml): 68.03 +/− 10.793
migrated cells (checkerboard analysis) (NIH 3T3 fibroblasts; lower 10 μg/ml, upper 10 μg/ml): 47.53 +/− 5.605
migrated cells (checkerboard analysis) (NIH 3T3 fibroblasts; lower 10 μg/ml, upper 20 μg/ml): 64.86 +/− 7.961
migrated cells (checkerboard analysis) (NIH 3T3 fibroblasts; lower 10 μg/ml, upper 50 μg/ml): 74.66 +/− 3.946
migrated cells (checkerboard analysis) (NIH 3T3 fibroblasts; lower 20 μg/ml, upper 0 μg/ml): 90.53 +/− 5.203
migrated cells (checkerboard analysis) (NIH 3T3 fibroblasts; lower 20 μg/ml, upper 10 μg/ml): 88.73 +/− 4.152
migrated cells (checkerboard analysis) (NIH 3T3 fibroblasts; lower 20 μg/ml, upper 20 μg/ml): 56.9 +/− 3.289
migrated cells (checkerboard analysis) (NIH 3T3 fibroblasts; lower 20 μg/ml, upper 50 μg/ml): 76.23 +/− 1.8190
migrated cells (checkerboard analysis) (NIH 3T3 fibroblasts; lower 50 μg/ml, upper 0 μg/ml): 72.43 +/− 8.276
migrated cells (checkerboard analysis) (NIH 3T3 fibroblasts; lower 50 μg/ml, upper 10 μg/ml): 91.3 +/− 1.003
migrated cells (checkerboard analysis) (NIH 3T3 fibroblasts; lower 50 μg/ml, upper 20 μg/ml): 63.26 +/− 3.835
migrated cells (checkerboard analysis) (NIH 3T3 fibroblasts; lower 50 μg/ml, upper 50 μg/ml): 57.46 +/− 2.287
migrated cells (checkerboard analysis) (NIH 3T3 fibroblasts; lower compartment 0 μg/ml, upper compartment 10 μg/ml): 62.3 +/− 3.269
concentration of maximal chemotactic response [5]: 20 µg/mL

B1: TGF-β2: purified recombinant human protein provided by Genzyme Corp., spiked into TFC / fibrin clot (protein, UniProt P61812 303-414, looked up)
Transforming growth factor …: ALDAAYCFRNVQDNCCLRPLYIDFKRDLGWKWIHEPKGYNANFCAGACPYLWSSDTQHSRVLSLYNTINPEASASPCCVSQDLEPLTILYYIGKTPKIEQLSNMIVKSCKCS
bio-assay of extract [6]: bioactive
